Assay [1] deals with isolated rat kidney mitochondria. The assay can be described thus: O2 consumption of isolated rat kidney mitochondria (Oxygraph). The assay is classed as biochemical. As to conditions: for electron flux, as measured by O2 consumption: 100 μM peptide, 0.5 mM succinate (complex II substrate) and 400 μM ADP, FIG. 14. As to the method: (§1) Mitochondrial O2 consumption and ATP production: Fresh mitochondria were isolated from rat kidney as described previously. Electron flux was measured by O2 consumption (Oxygraph Clark electrode) as previously described using different substrates for C1 (glutamate/malate), C2 (succinate), and C3 (TMPD/ascorbate). Assays were carried out under low substrate conditions in order to avoid saturating the enzyme reactions. ATP production in isolated mitochondria was determined kinetically using the luciferase method (Biotherma) in a 96-well luminescence plate reader (Molecular Devices). The initial maximal rate for ATP synthesis was determined over the first minute.
Oxygen consumption of isolated rat kidney mitochondria was determined using the Oxygraph (FIG. 5). Rates of respiration were measured in the presence of different concentrations of SS-31 in state 2 (400 μM ADP only), state 3 (400 μM ADP and 500 μM substrates) and state 4 (substrates only). All experiments were done in triplicate with n=4-7.
(§2) SS-20 or SS-31 was added at 100 μM concentrations to isolated mitochondria in respiration buffer containing 0.5 mM succinate (complex II substrate) and 400 μM ADP.

Assay [2] has as its target T1, cytochrome c (Homo sapiens, UniProt P99999). The assay can be described thus: Cytochrome c reduction by absorption spectroscopy (absorbance at 550 nm). In kind it is biochemical. Particulars: for rate of cytochrome c reduction: glutathione (GSH) as reducing agent, absorbance at 550 nm, FIG. 1B, FIG. 13. The method, then: Cytochrome c reduction: increasing amounts of aromatic-cationic peptides were added to a solution of oxidized cytochrome c. The formation of reduced cytochrome c was monitored by absorbance at […]. The rate of cytochrome c reduction was determined by non-linear analysis (Prizm software).
Time-resolved UV-Visible absorption spectroscopy was used to study the electron transport process of cytochrome c in the presence of peptides. Reduced cytochrome c was monitored by absorbance at a broad-band spectral range (200-1100 nm). The absorption changes were recorded with a UV/Visible spectrophotometer (Ultrospec 3300 pro, GE) in quartz cells with path lengths of 1 or 2 mm. N-acetylcysteine (NAC) and glutathione were used as electron donors to reduce oxidized cytochrome c. The rate constant of cytochrome c reduction was estimated by adding various concentrations of peptides. The dose dependence of the peptides was correlated to the cytochrome c reduction kinetics.
Absorption spectroscopy (UltroSpec 3300 Pro; 220-1100 nm) was used to determine if SS-31 modulates cytochrome c reduction (FIG. 1). Reduction of cytochrome c with glutathione is associated with multiple shifts in the Q band (450-650 nm), with a prominent shift at 550 nm.
SS-31 and SS-20 can accelerate the kinetics of cytochrome c reduction induced by glutathione (GSH) as a reducing agent (FIG. 13). Reduction of cytochrome c was monitored by increase in absorbance at 550 nm. […] Similar results were obtained using N-acetylcysteine (NAC) as a reducing agent (not shown).

Assay [3] concerns the target T1, cytochrome c. The assay can be described thus: Circular dichroism of Soret band of cytochrome c. Particulars: FIG. 4. The assay is classed as biochemical. As to the method: Circular dichroism (Olis spectropolarimeter, DSM20) was carried out to monitor Soret band (negative peak at 415 nm), as a probe for the π-π* heme environment in cytochrome c (FIG. 4). […] The increase in π-π* interaction around the heme would enhance electron tunneling which would be favorable for electron diffusion.

Assay [4] has as its target T1, cytochrome c. The assay can be described thus: Cyclic voltammetry of cytochrome c. In kind it is biochemical.
Assay [5] has as its target T1, cytochrome c. As to the kind of experiment: Photoluminescence of cytochrome c (532.8 nm excitation, 650 nm emission). The assay is classed as biochemical. Particulars: Nd:YDO4 laser 532.8 nm. The text has this: A light source 140, such as a laser or light-emitting diode (LED), illuminates the peptide-doped cytochrome c layer 110 at an excitation wavelength, such as 532.8 nm. […] (As understood by those skilled in the art, the gap between the valence band and the excited state is […] to the excitation wavelength.) After a short relaxation time, the electron decays from the excited state to a conduction band. When the electron relaxes to valence band from the conduction band, the peptide-doped cytochrome c layer 110 emits a photon at a luminescence wavelength, such as 650 nm, fixed by the gap between the valence and conduction bands.
Thus, as the aromatic-cationic peptide concentration in the peptide-doped cytochrome c layer 110 varies due to changes in the pH and/or temperature of the test substrate 130, the intensity at the luminescence wavelength varies as well. Detecting this change in intensity with a photodetector 150 yields an indication of the pH and/or temperature of the test substrate 130.
Photoluminescence (PL) was carried out to examine the effects of SS-31 on the electronic structure of conduction band of the […] of cytochrome c, an energy state responsible for electronic transport (FIG. 3). A […] laser (532.8 nm) was used to excite electrons in cytochrome c (FIG. 2A). Strong PL emission in cytochrome c state can be clearly identified at 650 nm (FIG. 2B).

The subject of assay [6] is cytochrome c-depleted mitoplasts made from once-frozen rat kidney mitochondria. As to the kind of experiment: O2 consumption in cytochrome c-depleted mitoplasts. In kind it is biochemical. Particulars: 500 μM Succinate, 100 μM SS-31; FIG. 7. The method, then:
Rates of respiration were measured in the presence of 500 μM Succinate with or without 100 μM SS-31. The experiment was carried out in triplicate, with n=3.

The next assay deals with isolated mitochondria. The assay can be described thus: ATP synthesis in isolated mitochondria. In kind it is biochemical, rat. As to conditions: for rate of ATP production: isolated mitochondria energized with low concentrations of succinate, FIG. 15. The method, then:
as §1
The rate of mitochondrial ATP synthesis was determined by measuring ATP in respiration buffer collected from isolated mitochondria 1 min after addition of […] (FIG. 6). ATP was assayed by HPLC. All experiments were carried out in triplicate, with n=3.
as §2

The test system of another assay is mitochondrial ROS. As to the kind of experiment: Cellular and animal studies of mitochondrial ROS and function.
The test system of assay [7] is H2O2, hydroxyl radical, and peroxynitrite. As to the kind of experiment: Neutralization of reactive species and lipid peroxidation. The assay is classed as biochemical.
In assay [8] the test system is animal models of ischemia-reperfusion injury, neurodegenerative diseases, and metabolic syndrome. As to the kind of experiment: Animal models of ischemia-reperfusion injury, neurodegenerative diseases, and metabolic syndrome. The assay is classed as in vivo.

“Also recorded” adds a separate entry of the source. Non-standard residues stand in square brackets, D forms with d. No end group written: not given here.

T1 sequence (P99999 whole entry, species assumed): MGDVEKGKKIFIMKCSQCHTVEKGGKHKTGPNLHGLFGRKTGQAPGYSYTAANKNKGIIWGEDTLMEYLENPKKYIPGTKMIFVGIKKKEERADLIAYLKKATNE

As to D-Arg-2′,6′-Dmt-Lys-Phe-NH2 [SS-31], in assay [1], the “electron flux, as measured by O2 consumption” value was “promote electron flux”. Besides, the “rates of respiration (O2 consumption)” value in assay [1] (different concentrations of SS-31, state 2, state 3 and state 4, FIG. 5) was “promoted electron transfer to oxygen without uncoupling mitochondria”. Further, the “rate of NAC-induced cytochrome c reduction” value at cytochrome c [2] (N-acetylcysteine (NAC) as reducing agent) is reported as “dose-dependently increased”. For the same substance, the “rate of cytochrome c reduction” value on cytochrome c [2] is reported as “increased; also recorded: accelerate”. The “reduction of cytochrome c by peptide alone” value on cytochrome c [2] (peptide alone at 100 μM, no reducing agent) is reported as “did not reduce cytochrome c”. In addition, the “spectral weight shift at 550 nm of cytochrome c” value at cytochrome c [2] (reduction of cytochrome c with glutathione, FIG. 1A) was “significant spectral weight shift”. Besides, at cytochrome c [3], the “denaturing of cytochrome c” value is “without denaturing”. The “Soret band peak position after red shift” value at cytochrome c [3] (negative peak at 415 nm without peptide) is recorded as 440 nm. Moreover, the “current for reduction and oxidation processes of cytochrome c” value on cytochrome c [4] (Au working electrode, Ag/AgCl reference, FIG. 2 upper panel) is reported as “increased current”. For the same substance, the “reduction/oxidation potentials of cytochrome c” value at cytochrome c [4] (FIG. 2 upper panel) is recorded as “does not alter”. Besides, the “increase of current (electron diffusion rate)” value at cytochrome c [4] (cytochrome c:SS-31=1:2, TBE buffer, FIG. 2 lower panel) is around 200%. On cytochrome c [5], the “PL intensity of cytochrome c at 650 nm” value is listed as “increased dose-dependently”. Moreover, the “mitochondrial O2 consumption (rates of respiration) in cytochrome c-depleted mitoplasts” value in assay [6] is recorded as “Enhances Respiration”. The “rate of ATP synthesis” value in the assay on isolated mitochondria (ATP by HPLC 1 min after addition of 400 mM ADP, FIG. 6) is on record as “dose-dependently increased”. Besides, the “rate of ATP production” value in the assay with isolated mitochondria is given as “significant increase”.

For the substance F[dR]FK-NH2 [SS-20], in assay [1], the “electron flux, as measured by O2 consumption” value is on record as “promote electron flux”. The “rate of cytochrome c reduction” value at cytochrome c [2] is given as “accelerate”. In addition, in the assay with isolated mitochondria, the “rate of ATP production” value is reported as “significant increase”.

On to D-Arg-2′6′-Dmt-Tyr-Lys-Phe-NH2, for which the “mitochondrial ROS and mitochondrial function” value in the assay on mitochondrial ROS was “reduces mitochondrial ROS and protect mitochondrial function”. Further, in [7], the lipid peroxidation result was “inhibit lipid peroxidation”; the “neutralization of H2O2, hydroxyl radical, and peroxynitrite” value was “can neutralize H2O2, hydroxyl radical, and peroxynitrite”. Also, in assay [8], the “efficacy in animal models” value is listed as “remarkable efficacy”.

For the origin of these results see patent US20170240593A1, “AROMATIC-CATIONIC PEPTIDES AND USES OF SAME” (Cornell University, priority 2011, published 2017).
